Consider 34 molecules from US10562882B2, “Piperidine derivatives for use in the treatment or prevention of psychiatric and neurological conditions” (Takeda Pharmaceutical Company Limited, priority 2013, dated 2020).

Counter-ions that a name gives are not always drawn. A value given as a limit tells only on which side of the number the result lay.

Sequence of human PKR1 receptors (Q8TCW9 whole entry): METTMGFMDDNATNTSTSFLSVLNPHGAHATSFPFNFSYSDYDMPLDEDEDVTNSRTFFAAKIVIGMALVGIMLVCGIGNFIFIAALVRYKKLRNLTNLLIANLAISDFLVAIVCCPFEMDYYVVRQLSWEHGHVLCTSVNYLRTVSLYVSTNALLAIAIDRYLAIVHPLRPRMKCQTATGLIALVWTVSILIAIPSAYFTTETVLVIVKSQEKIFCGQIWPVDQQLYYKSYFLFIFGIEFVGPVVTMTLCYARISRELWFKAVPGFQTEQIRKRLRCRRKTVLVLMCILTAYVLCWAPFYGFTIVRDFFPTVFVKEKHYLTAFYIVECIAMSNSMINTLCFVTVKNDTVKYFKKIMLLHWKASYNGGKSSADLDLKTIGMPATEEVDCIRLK

The target of this test is human PKR1 receptors (Homo sapiens (Human), UniProt Q8TCW9). Briefly: PKR1 antagonist intracellular calcium (FLIPR) assay, block of PK1-mediated calcium release. It counts as cell-based. To be noted: RBL2H3 cells expressing human PKR1; PK1 at EC80; minimum of two independent assays. How it is done:
Prokineticin receptor 1 (PKR1) antagonists may be functionally assessed by measurement of change in intracellular calcium levels induced by Gq mediated increase in inositol triphosphate (IP3) levels. The ability of a compound to block the intracellular release of calcium mediated by PK1 in RBL2H3 cells expressing human PKR1 receptors is determined as a measure of the compound's antagonist activity in vitro.
Approximately 10,000 cells per assay well are seeded in normal culture medium in a 384 well plate (Corning). Twenty-four hours after seeding, the cells are loaded with a calcium sensitive fluorescent dye by replacing the culture medium with assay buffer (1× Hanks buffered saline, 25 mM HEPES, 0.1% w/v fatty acid free BSA (bovine serum albumin), pH 7.4) containing 1 mM probenecid and 1× Calcium 5 Reagent (Molecular Devices). Cells are incubated at 37° C. for 1 hour to allow for dye uptake.
To test for antagonist activity, test compounds at a final concentration range between 0.32 nM-10 μM (diluted in assay buffer) are added to duplicate assay wells and allowed to incubate for 10 minutes prior to stimulation with PK1. After incubation with test compounds the assay plate is placed in a FLIPR Tetra (Molecular Devices) and PK1 (diluted in assay buffer) is added at the determined EC80 concentration (final). Ligand-dependent changes in intracellular calcium levels are determined by measuring changes in fluorescence of the dye at […] following excitation at 485 nm. […] A minimum of two IC50 values determined from independent assays are generated for each compound.
For the molecule `COC1(c2ncc(Cl)cc2C)CCCN(C(=O)c2cn(C)nc2N)C1` (stereo not shown) [Example 42, 4-[3-(5-Chloro-3-methylpyridin-2-yl)-3-methoxypiperidine-1-carbonyl]-1-methyl-1H-pyrazol-3-amine], the IC50 is more than 9 µM.

For the molecule `CCn1c(C2CCCN(C(=O)c3cnnc(N(C)C)c3)C2)cc2ccccc21` (stereo not shown) [Example 11, 5-[3-(1-Ethyl-1H-indol-2-yl)piperidine-1-carbonyl]-N,N-dimethylpyridazin-3-amine], the IC50 turned out to be 0.94 µM.

Take `CCn1c(C2CCCN(C(=O)c3cn(C)nc3N)C2)c(C)c2ccccc21` (stereo not shown) [Example 25, 4-[3-(1-Ethyl-3-methyl-1H-indol-2-yl)piperidine-1-carbonyl]-1-methyl-1H-pyrazol-3-amine]: the IC50 stood at 7.86 µM.

Regarding `CNc1cc(C(=O)N2CCCC(F)(c3ncc(Cl)cc3C)C2)cnn1` (stereo not shown) [Example 38, 5-[3-(5-Chloro-3-methylpyridin-2-yl)-3-fluoropiperidine-1-carbonyl]-N-methylpyridazin-3-amine], the IC50 is 1.25 µM.

As for `COC1(c2ncc(Cl)cc2C)CCCN(C(=O)c2cnnc(N(C)C)c2)C1` (stereo not shown) [Example 37, 5-[3-(5-Chloro-3-methylpyridin-2-yl)-3-methoxypiperidine-1-carbonyl]-N,N-dimethylpyridazin-3-amine], the IC50 is 0.92 µM.

Turning to `CNc1cc(C(=O)N2CCCC(OC)(c3ncc(Cl)cc3C)C2)ccn1` (stereo not shown) [Example 34, 4-[3-(5-Chloro-3-methylpyridin-2-yl)-3-methoxypiperidine-1-carbonyl]-N-methylpyridin-2-amine], the IC50 was 0.47 µM.

Regarding `CC(C)n1c(C2CCCN(C(=O)c3cnnc(N(C)C)c3)C2)cc2ccccc21` (stereo not shown) [Example 13, N,N-Dimethyl-5-{3-[1-(propan-2-yl)-1H-indol-2-yl]piperidine-1-carbonyl}pyridazin-3-amine], the IC50 was determined as 0.76 µM.

In the case of `CNc1cc(C(=O)N2CCCC(c3cc4ccccc4n3C)C2)cnn1` (stereo not shown) [Example 9, N-Methyl-5-[3-(1-methyl-1H-indol-2-yl)piperidine-1-carbonyl]pyridazin-3-amine], the IC50 was found to be 1.08 µM.

As to `CC(C)n1c(C2CCCN(C(=O)c3ccnc(N(C)C)c3)C2)nc2ccccc21` (single isomer, unassigned; enantiomer 2) [Example 3, N,N-Dimethyl-4-{3-[1-(propan-2-yl)-1H-1,3-benzodiazol-2-yl]piperidine-1-carbonyl}pyridin-2-amine (enantiomer 2)], the IC50 turned out to be 9.06 µM.

On to `CNc1cc(C(=O)N2CCCC(c3[nH]c4ccccc4c3C)C2)cnn1` (stereo not shown) [Example 23, N-Methyl-5-[3-(3-methyl-1H-indol-2-yl)piperidine-1-carbonyl]pyridazin-3-amine], for which the IC50 came out at 7.41 µM.

With `CCn1cc(C(=O)N2CCCC(OC)(c3ncc(Cl)cc3C)C2)cn1` (stereo not shown) [Example 40, 5-Chloro-2-[1-(1-ethyl-1H-pyrazole-4-carbonyl)-3-methoxypiperidin-3-yl]-3-methylpyridine], the IC50 turned out to be 3.41 µM.

Consider `Cc1cc(Cl)cnc1C1CCCN(C(=O)c2cnnc(N(C)C)c2)C1` (stereo not shown) [Example 28, 5-[3-(5-Chloro-3-methylpyridin-2-yl)piperidine-1-carbonyl]-N,N-dimethylpyridazin-3-amine], for which the IC50 was determined as 1.04 µM.

Take `CNc1cc(C(=O)N2CCCC(c3cc4ccccc4n3C(C)C)C2)cnn1` (stereo not shown) [Example 14, N-Methyl-5-{3-[1-(propan-2-yl)-1H-indol-2-yl]piperidine-1-carbonyl}pyridazin-3-amine]: the IC50 amounted to 0.54 µM.

For `CC(C)n1c(C2CCCN(C(=O)c3ccnc(N(C)C)c3)C2)nc2ccccc21` (single isomer, unassigned; enantiomer 1) [Example 2, N,N-Dimethyl-4-{3-[1-(propan-2-yl)-1H-1,3-benzodiazol-2-yl]piperidine-1-carbonyl}pyridin-2-amine (enantiomer 1)], the IC50 worked out at 0.33 µM.

As to `CNc1cc(C(=O)N2CCCC(OC)(c3ncc(Cl)cc3C(F)(F)F)C2)cnn1` (stereo not shown) [Example 30, 5-({3-[5-Chloro-3-(trifluoromethyl)pyridin-2-yl]-3-methoxypiperidin-1-yl}carbonyl)-N-methylpyridazin-3-amine], the IC50 was found to be 2.08 µM.

Turning to `CCn1c(C2CCCN(C(=O)c3cnnc(NC)c3)C2)cc2cc(Cl)ccc21` (stereo not shown) [Example 20, 5-[3-(5-Chloro-1-ethyl-1H-indol-2-yl)piperidine-1-carbonyl]-N-methylpyridazin-3-amine], the IC50 came to 1.25 µM.

As to `CCn1cc(C(=O)N2CCCC(c3nc4ccccc4n3C(C)C)C2)cn1` (stereo not shown) [Example 7, 2-[1-(1-Ethyl-1H-pyrazole-4-carbonyl)piperidin-3-yl]-1-(propan-2-yl)-1H-1,3-benzodiazole], the IC50 was found to be 1.82 µM.

For the molecule `Cc1cc(Cl)cnc1C1(F)CCCN(C(=O)c2cn(C)nc2N)C1` (stereo not shown) [Example 43, 4-[3-(5-Chloro-3-methylpyridin-2-yl)-3-fluoropiperidine-1-carbonyl]-1-methyl-1H-pyrazol-3-amine], the IC50 was more than 5 µM.

In the case of `CNc1cc(C(=O)N2CCCC(OC)(c3ncc(Cl)cc3C)C2)cnn1` (stereo not shown) [Example 36, 5-[3-(5-Chloro-3-methylpyridin-2-yl)-3-methoxypiperidine-1-carbonyl]-N-methylpyridazin-3-amine], the IC50 was 1.49 µM.

In the case of `CCn1c(C2CCCN(C(=O)c3cn(C)nc3N)C2)cc2cc(Cl)ccc21` (stereo not shown) [Example 27, 4-[3-(5-Chloro-1-ethyl-1H-indol-2-yl)piperidine-1-carbonyl]-1-methyl-1H-pyrazol-3-amine], the IC50 was 0.91 µM.

Consider `CN(C)c1cc(C(=O)N2CCCC(c3cc4ccccc4n3C)C2)ccn1` (stereo not shown) [Example 8, N,N-Dimethyl-4-[3-(1-methyl-1H-indol-2-yl)piperidine-1-carbonyl]pyridin-2-amine], for which the IC50 turned out to be 1.07 µM.

For the molecule `CNc1cc(C(=O)N2CCCC(OC)(c3ncc(Cl)cc3C(F)(F)F)C2)ccn1` (stereo not shown) [Example 29, 4-{3-[5-Chloro-3-(trifluoromethyl)pyridin-2-yl]-3-methoxypiperidine-1-carbonyl}-N-methylpyridin-2-amine formate], the IC50 is 0.48 µM.

For the molecule `Cc1cc(Cl)cnc1C1(F)CCCN(C(=O)c2cnnc(N(C)C)c2)C1` (stereo not shown) [Example 39, 5-[3-(5-Chloro-3-methylpyridin-2-yl)-3-fluoropiperidine-1-carbonyl]-N,N-dimethylpyridazin-3-amine], the IC50 is 0.4 µM.

Take `CN(C)c1cc(C(=O)N2CCCC(c3nc4ccccc4n3C)C2)ccn1` (stereo not shown) [Example 4, N,N-Dimethyl-4-[3-(1-methyl-1H-1,3-benzodiazol-2-yl)piperidine-1-carbonyl]pyridin-2-amine]: the IC50 turned out to be 1.22 µM.

For the molecule `CC(C)n1c(C2CCCN(C(=O)c3cn(C)nc3N)C2)cc2ccccc21` (stereo not shown) [Example 16, 1-Methyl-4-{3-[1-(propan-2-yl)-1H-indol-2-yl]piperidine-carbonyl}-1H-pyrazol-3-amine], the IC50 is 1.44 µM.

Turning to `CC(C)n1c(C2CCCN(C(=O)c3ccnc(N(C)C)c3)C2)nc2ccccc21` (racemic) [Example 1, N,N-Dimethyl-4-{3-[1-(propan-2-yl)-1H-1,3-benzodiazol-2-yl]piperidin-1-carbonyl}pyridin-2-amine (racemic)], the IC50 was 0.32 µM.

On to `CCn1cc(C(=O)N2CCCC(OC)(c3ncc(Cl)cc3C(F)(F)F)C2)cn1` (stereo not shown) [Example 32, 5-Chloro-2-[1-(1-ethyl-1H-pyrazole-4-carbonyl)-3-methoxypiperidin-3-yl]-3-(trifluoromethyl)pyridine], for which the IC50 is 1.88 µM.

In the case of `CCn1c(C2CCCN(C(=O)c3cnnc(N(C)C)c3)C2)cc2cc(C)ccc21` (stereo not shown) [Example 21, 5-[3-(1-Ethyl-5-methyl-1H-indol-2-yl)piperidine-1-carbonyl]-N,N-dimethylpyridazin-3-amine], the IC50 stood at 5.34 µM.

On to `CNc1cc(C(=O)N2CCCC(F)(c3ncc(Cl)cc3C)C2)ccn1` (stereo not shown) [Example 35, 4-[3-(5-Chloro-3-methylpyridin-2-yl)-3-fluoropiperidine-1-carbonyl]-N-methylpyridin-2-amine], for which the IC50 worked out at 0.29 µM.

Turning to `CCn1c(C2CCCN(C(=O)c3cnnc(N(C)C)c3)C2)cc2cc(Cl)ccc21` (stereo not shown) [Example 22, 5-[3-(5-Chloro-1-ethyl-1H-indol-2-yl)piperidine-1-carbonyl]-N,N-dimethylpyridazin-3-amine], the IC50 is 1.73 µM.

In the case of `Cc1c(C2CCCN(C(=O)c3cnnc(N(C)C)c3)C2)[nH]c2ccccc12` (stereo not shown) [Example 24, N,N-Dimethyl-5-[3-(3-methyl-1H-indol-2-yl)piperidine-1-carbonyl]pyridazin-3-amine], the IC50 came out at 7.41 µM.

For the molecule `COC1(c2ncc(Cl)cc2C(F)(F)F)CCCN(C(=O)c2ccnc(N(C)C)c2)C1` (stereo not shown) [Example 33, 4-{3-[5-Chloro-3-(trifluoromethyl)pyridin-2-yl]-3-methoxypiperidine-1-carbonyl}-N,N-dimethylpyridin-2-amine], the IC50 is 0.51 µM.

Regarding `CCn1c(C2CCCN(C(=O)c3cnnc(NC)c3)C2)c(C)c2ccccc21` (stereo not shown) [Example 18, 5-[3-(1-Ethyl-3-methyl-1H-indol-2-yl)piperidine-1-carbonyl]-N-methylpyridazin-3-amine], the IC50 is 2.17 µM.

With `CC(C)n1c(C2CCCN(C(=O)c3cnnc(Cl)c3)C2)nc2ccccc21` (stereo not shown) [Example 5, 2-[1-(6-Chloropyridazine-4-carbonyl)piperidin-3-yl]-1-(propan-2-yl)-1H-1,3-benzodiazole], the IC50 amounted to 7.46 µM.
